pIC50, pKi: −log10 of the molar value. Like-named read-outs stand apart in the source and are kept apart here. Marks after values point to notes of the source that are not given here.
Columns and labels:
[1] = tested on: male NIH-Swiss mice; assay: Mouse forced-swim test (FST); assay type: in vivo; details: 10 mg/kg i.p. single dose 30 minutes prior to testing
Protocol: (§1) For the mouse and rat forced-swim tests, male pathogen-free NIH-Swiss mice (Harlan Sprague-Dawley) weighing between 22-25 g, and male pathogen-free Sprague-Dawley rats (Harlan Sprague-Dawley) weighing between 320-350 g were used. Animals were removed from the housing room to the testing area in their own cages and allowed to adapt to the new environment for at least 1 hour before testing. Mice were administered either drug (imipramine, 10 mg/kg i.p.; or Compound 60, various p.o or i.p. doses) or saline. Thirty minutes to 24 hours later, mice were placed individually in cylinders (diameter: 10 cm; height: 25 cm) filled with 6 cm of water (22-25° C.) for 6 minutes. The duration of immobility during the last 4 minutes of the 6 minute test was scored. A mouse was recorded as immobile when floating motionless or making only those movements necessary to keep its head above water. Results were expressed as the duration of immobility (seconds).

[2] = tested on: male C57BL/6 mice; assay: Mouse tail-suspension test (TST) with Compound 60; assay type: in vivo
Protocol: For the mouse tail-suspension test with Compound 60, male pathogen-free C57BL/6 mice (Harlan Sprague-Dawley) weighing between 22-25 g were used. Animals were removed from the housing room to the testing area in their own cages and allowed to adapt to the new environment for at least 1 hour before testing. Mice were administered either drug (imipramine, 15 mg/kg i.p.; or Compound 60, various p.o. doses) or saline. Thirty minutes to 24 hours later, the mice were suspended on the edge of a shelf 80 cm above the floor in the testing room by adhesive tape placed approximately 1 cm from the tip of the tail. The duration of immobility was recorded during a test period of 5 minutes. Mice were considered immobile only when they hung passively and completely motionless. Results were expressed as the duration of immobility (sec).

[3] = tested on: male Sprague-Dawley rats; assay: Rat forced-swim test (FST); assay type: in vivo; details: Table VI; 10 mg/kg i.p., 30 minutes prior to testing; saline control 47.9
Protocol: as §1
The rat forced-swim test was conducted over two days. On treatment Day 1, rats were placed individually in cylinders (diameter: 18 cm; height: 40 cm) filled with water (22-25° C.) to a depth of 15 cm for 15 minutes. The duration of immobility during the first 5 minutes was scored. After testing, the rats were dried with paper towels and placed in holding cages. Five minutes after removal from the testing cylinders, animals received either drug (imipramine, 10 mg/kg i.p.; or Compound 60, various p.o. doses) or saline (p.o.). Ten minutes later, the rats were returned to their home cages. […] The duration of immobility during the first 5 minute period was recorded. A rat was recorded as immobile when floating motionless or making only those movements necessary to keep its head above water. […]

[4] = target: T1, dopamine transporter site (Cavia porcellus, UniProt H0WCX4); assay: Dopamine reuptake inhibition assay ([3H]WIN 35428 binding, guinea pig striatal membranes)
T1 construct: tissue NovaScreen (performed the assay); host or cells: guinea pig striatal membranes
Protocol: (§2) Monoamine Transporter Minding Assays
(§3) Monoamine transporter binding assays (reuptake inhibition assays) were performed by NovaScreen using standard radioligand binding assays. The transporter binding assays are described briefly below:
Dopamine Reuptake Inhibition Assay:
Reactions were terminated by rapid vacuum filtration onto glass fiber filters. Bound radioactivity was determined using liquid scintillation spectrometry and experimental values were compared to control values to determine binding to the dopamine transporter site based on Madras, et al., Molec.

[5] = target: T2, NMDA receptor; assay: [3H]MK-801 binding assay (rat cortex synaptic plasma membranes); details: read-out: [3H]MK-801 data IC50, Table I
T2 construct: rat cortex membranes
Protocol: Synaptic plasma membranes (SPMs) from rat cortex were prepared as follows. Isolated cerebral cortices from male and female rats were purchased from Pel-Freez (Rogers, Ariz.) in bulk, and stored at −80° C. The cortices from 25 rats were thawed and pooled. […] The resulting homogenates were centrifuged for 10 min at 1,000×g in a T865 rotor, UltraPro80 Sorvall Centrifuge. The supernatant was removed and subsequently centrifuged at 30,000×g for 30 min. […] Membranes were washed by re-suspension in 500 ml of 5 mM K-EDTA (pH 7.0), incubated at 32° C. for 30 min with stirring, and centrifuged at 100,000×g for 30 min. The final pellet was resuspended in 60 ml of […] K-EDTA (pH 7.0) and stored in aliquots at −80° C. The extensive washing procedure utilized in this assay was designed to minimize the concentrations of glutamate and glycine (co-agonists at the NMDA receptor-ionophore complex) present in the membrane preparation.
On the day of assay, aliquots of SPM were thawed and resuspended in 75 vols of 5 mM K-EDTA, pH 7.0. SPM were centrifuged at 100,000×g for 30 min at 4° C.
The SPM pellet was resuspended in assay buffer (30 mM EPPS, 1 mM K-EDTA, pH 7.0) by polytron. […] Binding was started by the addition of the tissue homogenate. The assay was terminated by the addition of 4 ml ice-cold buffer, followed by filtration over glass-fiber filters (Schleicher & Schuell No. 30) on a Millipore 12-well filtration manifold. Filters were washed with another 3 ×4 ml ice-cold buffer (pH 7.0). Radioactivity on the filters was measured using Fisherbrand Scinti-Safe scintillation cocktail. Samples were shaken for 45-60 min on a shaker platform to solubilize the radioactivity. Counting for ^3H was performed in a Beckman 6000IC LS Scintillation Counter for 4 min per sample.

[6] = tested on: T3, NMDA receptor; assay: NMDA receptor assay (fura-2 cytosolic calcium in cultured rat cerebellar granule cells); assay type: cell-based; details: Table I, read-out: fura2 data IC50
T3 construct: fura2 data IC50; rat cerebellar granule cells
Protocol: All culture media, antibiotics, and enzymes, with the exception of fetal calf serum (Hyclone Laboratories, Logan, Utah), were purchased from Sigma Chemical Co., St. Louis, Mo. Fura-2/AM was obtained from Molecular Probes, Eugene, Oreg., and was prepared freshly in dimethylsulfoxide (DMSO) before use. Ionomycin (Calbiochem) was stored as a stock solution in DMSO. Nifedipine (Sigma) and nimodipine (RBI) were dissolved in absolute ethanol. […] All other agents were dissolved in phosphate-buffered saline (PBS), and adjusted to pH 7.4
Preparation of Rat Cerebellar Granule Cell (RCGC) Cultures
Briefly, primary cultures of cerebellar granule neurons were obtained from 8-day-old rats and plated onto squares of Aclar plastic coated with poly-L-lysine. The plastic squares were placed in 12-well culture plates, and ˜7.5×10^5 cells were added to each well. Cultures were maintained in Eagles's medium containing 25 mM KCl, 10% fetal calf serum, 2 mM glutamine, 100 μg/ml gentamicin, 50 U/ml penicillin, and 50 μg/ml streptomycin at 37° C. in a humid atmosphere of 5%CO2 in air for 24 hr before the addition of cytosine arabinoside (10 μM, final). No changes of culture medium were made until the cells were used for fluorescence recording 6-8 days after plating.
Measurement of Cytosolic Calcium
(“Ca^2+-free” buffer contained no added CaCl2 and 30 μM EGTA). The cells were then rinsed with the same buffer, lacking fura-2/AM, and maintained at room temperature until used for measurement of fluorescence, the Aclar squares were transferred into quartz cuvettes containing 2 ml of the HEPES buffer. The cuvette was then placed into a thermostatted holder equipped with a magnetic stirrer in a custom-built spectrofluorimeter (Biomedical Instrumentation Group, University of Pennsylvania, Philadelphia, Pa.). The size of the plastic Aclar square was such as to fit snugly in the cuvette when placed at a diagonal and therefore suspend itself over the spin bar. Fluorescence was measured using excitation and emission wavelengths of 340 and 510 nm, respectively. The amplitude of the evoked increase in fluorescence and subsequent inhibition were recorded and the concentration of [Ca^2+]i was calculated using the formula:
[Ca^2+]=Kd (F-Fmin)/(Fmax-F) (Eq. 1)
F=fluorescence amplitude evoked at a particular time point or concentration of compound;
Fmin=minimum fluorescence determined after the addition of a 2.5 M TRIS/0.3 M EGTA solution;
Fmax=maximum fluorescence determined following the addition of 7 mM ionomycin in DMSO; and […]

[7] = target: T4, norepinephrine transporter site (Rattus norvegicus, UniProt Q63380); assay: Norepinephrine reuptake inhibition assay ([3H]nisoxetine binding, rat forebrain membranes)
T4 construct: tissue NovaScreen (performed the assay); host or cells: rat forebrain membranes
Protocol: as §2, §3
Norepinephrine Reuptake Inhibition Assay
Reactions were terminated by rapid vacuum filtration onto glass fiber filters.

[8] = target: T5, serotonin transporter site (Rattus norvegicus, UniProt P31652); assay: Serotonin reuptake inhibition assay ([3H]citalopram binding, rat forebrain membranes)
T5 construct: tissue NovaScreen (performed the assay); host or cells: rat forebrain membranes
Protocol: as §2, §3
Serotonin Reuptake Inhibition Assay
Rat forebrain membranes were incubated with 0.7 nM [^3H] citalopram, N-methyl, (70-87 Ci/mmol)in 50 mM Tris-HCl (pH 7.4), 120 mM NaCl, and 5 mM KCl at 25° C. for 60 minutes. […] Reactions were terminated by rapid vacuum filtration onto glass fiber filters.

[9] = tested on: male NMRI-CERJ mice; assay: Automated tail-suspension test in mice (Compound 19); assay type: in vivo, mouse; details: 16 mg/kg i.p., 30 min prior to testing; p<0.001
Protocol: In this test, the animal is suspended by the tail for 6 minutes. The behavior of the animal is recorded automatically using a special computerized apparatus which measures two parameters, the duration of immobility and the power of the movements. Ten animals are studied per dose group. […] This test, which is a variant of the behavioral despair test, is based on the assumption that animals faced with an insoluble aversive situation will alternate between phases of activity (searching to escape) and immobility (waiting, “despairs”).

[10] = Table I, read-out: 5-HT Uptake Ki

T4 sequence (Q63380 1-617): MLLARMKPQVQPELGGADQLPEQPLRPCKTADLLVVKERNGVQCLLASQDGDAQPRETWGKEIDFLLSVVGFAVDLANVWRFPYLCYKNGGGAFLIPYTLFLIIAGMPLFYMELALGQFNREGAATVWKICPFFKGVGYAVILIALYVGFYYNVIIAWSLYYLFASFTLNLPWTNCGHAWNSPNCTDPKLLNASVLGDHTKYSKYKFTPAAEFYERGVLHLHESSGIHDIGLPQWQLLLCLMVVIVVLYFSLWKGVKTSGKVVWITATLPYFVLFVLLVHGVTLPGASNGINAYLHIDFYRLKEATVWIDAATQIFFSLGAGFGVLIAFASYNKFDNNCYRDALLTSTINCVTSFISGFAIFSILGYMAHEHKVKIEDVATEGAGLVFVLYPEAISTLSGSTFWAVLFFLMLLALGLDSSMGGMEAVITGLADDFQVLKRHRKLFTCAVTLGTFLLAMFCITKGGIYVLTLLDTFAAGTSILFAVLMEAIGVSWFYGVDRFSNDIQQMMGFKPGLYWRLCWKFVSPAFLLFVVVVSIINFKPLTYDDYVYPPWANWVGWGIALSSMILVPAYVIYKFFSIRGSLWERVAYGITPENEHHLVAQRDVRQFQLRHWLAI
T1 sequence (H0WCX4 1-619): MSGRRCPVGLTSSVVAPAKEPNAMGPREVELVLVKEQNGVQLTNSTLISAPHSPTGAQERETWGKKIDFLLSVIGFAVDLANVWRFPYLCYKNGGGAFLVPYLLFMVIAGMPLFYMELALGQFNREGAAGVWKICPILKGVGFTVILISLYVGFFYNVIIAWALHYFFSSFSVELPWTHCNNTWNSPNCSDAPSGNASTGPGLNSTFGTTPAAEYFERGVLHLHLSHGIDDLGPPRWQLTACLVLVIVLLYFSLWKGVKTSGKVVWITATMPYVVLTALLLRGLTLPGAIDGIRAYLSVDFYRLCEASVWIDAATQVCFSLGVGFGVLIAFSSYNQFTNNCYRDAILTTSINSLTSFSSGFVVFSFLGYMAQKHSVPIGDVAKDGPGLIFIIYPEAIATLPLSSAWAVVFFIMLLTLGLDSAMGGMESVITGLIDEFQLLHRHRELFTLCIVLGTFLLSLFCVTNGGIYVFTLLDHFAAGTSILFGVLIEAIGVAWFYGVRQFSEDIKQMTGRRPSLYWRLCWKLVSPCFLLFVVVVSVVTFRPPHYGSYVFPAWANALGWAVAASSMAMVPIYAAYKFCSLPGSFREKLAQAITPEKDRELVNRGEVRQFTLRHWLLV
T5 sequence (P31652 whole entry): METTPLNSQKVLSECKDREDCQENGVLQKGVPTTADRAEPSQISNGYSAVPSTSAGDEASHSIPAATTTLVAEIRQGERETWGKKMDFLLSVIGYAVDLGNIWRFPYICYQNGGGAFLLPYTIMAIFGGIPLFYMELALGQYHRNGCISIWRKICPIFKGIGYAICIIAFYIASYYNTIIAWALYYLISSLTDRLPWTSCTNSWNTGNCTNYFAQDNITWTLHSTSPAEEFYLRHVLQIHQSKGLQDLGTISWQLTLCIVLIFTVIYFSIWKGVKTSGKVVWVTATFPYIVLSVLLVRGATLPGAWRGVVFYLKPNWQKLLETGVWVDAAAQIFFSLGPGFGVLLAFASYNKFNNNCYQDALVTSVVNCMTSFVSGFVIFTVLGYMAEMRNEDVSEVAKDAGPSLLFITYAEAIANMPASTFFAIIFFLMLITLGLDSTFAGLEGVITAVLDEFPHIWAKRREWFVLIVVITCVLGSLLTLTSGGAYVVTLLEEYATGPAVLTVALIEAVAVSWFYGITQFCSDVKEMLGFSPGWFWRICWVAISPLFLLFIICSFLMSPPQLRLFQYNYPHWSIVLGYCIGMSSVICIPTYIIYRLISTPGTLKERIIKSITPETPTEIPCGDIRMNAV

| Structure (SMILES) | pKi [4] | pIC50 [5] | pIC50 [6] | pKi [7] | pKi [8, 10] | also measured |
| --- | --- | --- | --- | --- | --- | --- |
| CN(C)CCCN1c2ccccc2CCc2ccccc21 [Imipramine, reference compound] | – | – | – | – | – | Mean duration of immobility ([1]; Table IV, saline control 129.7): 53.4* sec; Mean duration of immobility ([1]; Table V, saline control 137.8): 72.5* sec; Mean duration of immobility ([2]; Table VII, positive control, 15 mg/kg i.p. 30 minutes prior to testing, saline control 154.9): 103.6* sec; Duration of Immobility ([2]; Table VIII (experiment #1), 15 mg/kg i.p. single dose 30 minutes prior to testing, saline control 210.1): 133.9* sec; Mean Change in the Duration of Immobility (Day 2 minus Day 1) [3]: −23.3* sec |
| NCCC(c1cccc(F)c1)c1cccc(F)c1 [Compound 20] | 5.52 | 6.60 | 7.15 | 6.51 | 6.59 | – |
| CNCCC(c1ccccc1)c1ccccc1 [Compound 67] | – | 5.54 | 4.96 | – | – | – |
| C[C@@H](CN)C(c1cccc(F)c1)c1cccc(F)c1 [Compound 33] | 6.08 | 6.74 | 7.22 | 5.42 | 5.92 | – |
| NCCC(c1ccccc1)c1ccccc1 [Compound 19] | – | 5.68 | – | – | – | increase in the power of movements [9]: 275% |
| C[C@H](N)CC(c1cccc(F)c1)c1cccc(F)c1 [Compound 50] | 5.74 | 6.12 | 7.05 | 6.97 | 7.35 | – |
| Fc1cccc(C(c2cccc(F)c2)C2CCCNC2)c1 (centres unmarked) [Compound 111] | 7.52 | 6.78 | 6.19 | 6.91 | – | pKi [8]: 6.22 |
| C[C@H](CN)C(c1cccc(F)c1)c1cccc(F)c1 [Compound 34] | 6.22 | 5.57 | 6.37 | 5.52 | 5.68 | – |
| NCCC(Oc1cccc(F)c1)c1ccccc1 (centres unmarked) [Compound 137] | – | – | 6.63 | – | – | – |
